Measured values: patent US20110251068A1, “PARASITIC PLANT CONTROL AGENT AND PARASITIC PLANT CONTROL METHOD” (OSAKA UNIVERSITY, priority 2008, published 2011)

Assays:
Format in all cases: in vivo
Orobanche minor [1] = experiment: Germination rate of Orobanche minor seeds in the presence of enzyme inhibitors (GR24-induced); settings: for influence on germination of Orobanche minor: applied concurrently with GR24 0.1 mg/L, observed after four days (FIG. 8); for germination rate: Orobanche minor seeds, with GR24 0.1 mg/L, four days after application (FIG. 8)
Description: (§1) Surfaces of seeds of Orobanche minor and Striga gesnerioides were sterilized by use of an aqueous solution containing 1% SDS and 5% sodium hypochlorite. Thereafter, the seeds were washed five times by use of sterile distilled water. Subsequently, the seeds were subjected to suction filtration and then naturally dried. GF/A glass filter paper of Φ 47 mm was spread on a laboratory dish, a GF/D glass disk of 1 cm was placed on the GF/A glass filter paper, and approximately 50 grains of the seeds were sown on the GF/D glass disk. 1.5 mL of sterile water was placed in the laboratory dish, and conditioning was carried out in a dark place at 23° C. for seven days. The GF/D glass disk was taken out of the laboratory dish on the eighth day after the beginning of conditioning and then placed on new GF/A glass filter paper. 1.5 mL of a germination stimulant GR24 (0.1 mg/L) was applied to the seeds of Orobanche minor, so as to induce its germination. A root extract of cowpea (CP) was applied to the seeds of Striga gesnerioides, so as to induce its germination. Note that concurrently with GR24 or the root extract of cowpea, nojirimycin, deoxynojirimycin, or deoxygalactonojirimycin was applied to the seeds. Note that nojirimycin is a typical β-glucosidase activity inhibitor, deoxynojirimycin is a typical α-glucosidase activity inhibitor, and deoxygalactonojirimycin is a typical galactosidase activity inhibitor. Whether or not germination occurred was observed by microscopic observation four days after application of GR24 or the root extract of cowpea (CP) and the like to the seeds.

Striga gesnerioides [2] = experiment: Germination rate of Striga gesnerioides seeds in the presence of nojirimycin (induced by root extract of cowpea); settings: for germination rate: Striga gesnerioides seeds, rate without nojirimycin taken as 100%, cowpea root extract, four days (FIG. 10)
Description: as §1

Orobanche minor [3] = experiment: Recovery of germination inhibition effect by addition of glucose; settings: Orobanche minor seeds, GR24 0.1 mg/L, nojirimycin with glucose 10 mM, four days (FIG. 9)
Protocol: The following description specifically discusses how the examination was carried out. Surfaces of seeds of Orobanche minor were sterilized by use of an aqueous solution containing 1% SDS and 5% sodium hypochlorite. Thereafter, the seeds were washed five times by use of sterile distilled water. Subsequently, the seeds were subjected to suction filtration and then naturally dried. GF/A glass filter paper of Φ 47 mm was spread on a laboratory dish, a GF/D glass disk of 1 cm was placed on the GF/A glass filter paper, and approximately 50 grains of the seeds were sown on the GF/D glass disk. 1.5 mL of sterile water was placed in the laboratory dish, and conditioning was carried out in a dark place at 23° C. for seven days. The GF/D glass disk was taken out of the laboratory dish on the eighth day after the beginning of conditioning and then placed on new GF/A glass filter paper. 1.5 mL of a germination stimulant GR24 (0.1 mg/L) was applied to the seeds, so as to induce its germination. Note that concurrently with GR24, nojirimycin or a mixture of nojirimycin and glucose (glucose concentration: 10 mM) was added to the seeds. Whether or not germination occurred was observed by microscopic observation four days after application of GR24 and the like to the seeds.

Orobanche minor [4] = experiment: Selective inhibition of germination: parasitic plant Orobanche minor; settings: with GR24 0.1 mg/L, four days (FIG. 13)
Description: (§2) It was examined whether or not germination inhibition caused by inhibition of gentianose metabolism was a selective phenomenon with respect to a parasitic plant. Note that nojirimycin was used as a typical gentianose metabolism inhibitor. Note also that Orobanche minor and Striga gesnerioides were used as typical parasitic plants and Trifolium pratense and Arabidopsis thaliana were used as typical non-parasitic plants. The following description specifically discusses how the examination was carried out. Surfaces of seeds of Orobanche minor, Striga gesnerioides, Arabidopsis thaliana, and Trifolium pratense were sterilized by use of an aqueous solution containing 1% SDS and 5% sodium hypochlorite. Thereafter, the seeds were washed five times by use of sterile distilled water. Subsequently, the seeds were subjected to suction filtration and then naturally dried. GF/A glass filter paper of Φ 47 mm was spread on a laboratory dish, a GF/D glass disk of 1 cm was placed on the GF/A glass filter paper, and approximately 50 grains of the seeds were sown on the GF/D glass disk. 1.5 mL of sterile water was placed in the laboratory dish, and conditioning was carried out in a dark place at 23° C. for seven days. The GF/D glass disk was taken out of the laboratory dish on the eighth day after the beginning of conditioning and then placed on new GF/A glass filter paper. […]

Striga gesnerioides [5] = experiment: Selective inhibition of germination: parasitic plant Striga gesnerioides; settings: with root extract of cowpea, four days (FIG. 13)
Description: as §2

Trifolium pratense = experiment: Selective inhibition of germination: non-parasitic plant Trifolium pratense; settings: only nojirimycin, no germination inducer, four days (FIG. 13)
Description: as §2

Arabidopsis thaliana = experiment: Selective inhibition of germination: non-parasitic plant Arabidopsis thaliana; settings: only nojirimycin, no germination inducer, four days (FIG. 13)
Description: as §2

| influence on germination of Orobanche minor (Orobanche minor [1]) | Structure (SMILES) | germination rate (Orobanche minor [1]; concentration of 1 μM) | germination rate (Orobanche minor [1]; concentration of 10 μM) | germination rate (Orobanche minor [1]; concentration of not less than 25 μM) | germination rate (Striga gesnerioides [2]; 1 μM) | germination rate (Striga gesnerioides [2]; 10 μM) [%] | germination rate (Striga gesnerioides [2]; 50 μM) [%] | germination rate (Striga gesnerioides [2]; 100 μM) [%] | germination rate (Striga gesnerioides [2]; 1 mM) [%] | influence on germination of Striga gesnerioides (Striga gesnerioides [2]; applied concurrently with root extract of cowpea, observed after four days (FIG. 10)) | germination recovery effect of glucose versus germination inhibition effect of nojirimycin (Orobanche minor [3]) | inhibition of germination of Orobanche minor (parasitic plant) (Orobanche minor [4]) | inhibition of germination of Striga gesnerioides (parasitic plant) (Striga gesnerioides [5]) | inhibition of germination of Trifolium pratense (non-parasitic plant) (Trifolium pratense) | inhibition of germination of Arabidopsis thaliana (non-parasitic plant) (Arabidopsis thaliana) |
| --- | --- | --- | --- | --- | --- | --- | --- | --- | --- | --- | --- | --- | --- | --- | --- |
| no influence on germination | OC[C@H]1NC[C@H](O)[C@@H](O)[C@H]1O [deoxygalactonojirimycin] | – | – | – | – | – | – | – | – | – | – | – | – | – | – |
| no influence on germination | OC[C@H]1NC[C@H](O)[C@@H](O)[C@@H]1O [deoxynojirimycin] | – | – | – | – | – | – | – | – | – | – | – | – | – | – |
| inhibited germination | OC[C@H]1NC(O)[C@H](O)[C@@H](O)[C@@H]1O (some centres unmarked) [nojirimycin] | approximately 20% | approximately 10% | approximately 0% | approximately 24.3% | ~7.5 | ~6.2 | ~0 | ~0 | inhibited germination | recovered by glucose | effectively inhibited germination | effectively inhibited germination | did not inhibit germination | did not inhibit germination |
